This note sets out measurements from a melting point compilation (Tetko et al.; mined from patent text by program, amines drawn as free bases though some values may be those of a salt).

The term melting point denotes the temperature of the solid-liquid transition.

`CCN(CC)CCOc1ccc(Nc2ncc3c(n2)N(C)C(=O)N(c2cccc(Br)c2)C3)cc1` showed a melting point of 150 °C.

Compound `CCC1Cc2cc(OC)c(Cl)c(Cl)c2C1=O` (configuration not stated) returned a melting point of 146 to 147 °C.

In turn, `COc1cc(CC(=O)Nc2nn(-c3ccccc3)cc2C=O)ccc1OCc1nc(-c2ccco2)oc1C` had a melting point of 190 to 191 °C.

For the compound `COc1cc(Nc2c(C#N)cnc3cc(-c4ccc(C=O)cc4)ccc23)c(Cl)cc1Cl`, the melting point was in the range of 248 to 251 °C.

Compound `O=C(O)CCCON1CCNC1=Nc1c(Cl)cccc1Cl` had a melting point of 115 to 116 °C.

Turning to `CS(=O)(=O)Oc1cccnc1`, the melting point lay in the range of 56 to 58 °C.

`O=CC(=Cc1ccc(OC(=O)c2ccc(Br)cc2)cc1)C(C=O)=Cc1ccc(OC(=O)c2ccc(Br)cc2)cc1` showed a melting point of 223 to 225 °C.

As to `COc1cccc2c1OCN(CCc1ccccc1Cl)C2`, the melting point is 79 to 81 °C.

Turning to `CCC1Cc2c(C)c(O)c(C)c(C)c2O1` (racemic), the melting point lay in the range of 73 to 75 °C.

For `CCCCNc1c(C(=O)OCC)c(C)nc2[nH]nnc12`, the melting point fell in the range of 188 to 189 °C.

The compound `COc1ccc(CCNc2nc(N)n3nc(-c4ccco4)nc3n2)cc1` yielded a melting point of 211 to 213 °C.

Turning to `CCC(C)(C)O[C@H]1COC[C@H](NC(=O)c2nccc(OC)c2O)C(=O)O[C@@H](C)[C@@H]1OCC(C)C`, the melting point lay in the range of 138 to 140 °C.

Consider `CCCCCCCCCCCCCC/C=C\CC[C@@H]1OC(=O)C(O)=C1O`, for which the melting point lay in the range of 64 to 66 °C.

In turn, `CC(C)NC(=O)NC[C@H](C)NC(=O)OC(C)(C)C` had a melting point of 101 °C.

Consider `CCNC(=O)C(=O)[C@H](Cc1ccccc1)NC(=O)[C@H](CC(C)C)NC(=O)O[C@H]1CCOC1`, for which the melting point lay in the range of 159 to 161 °C.

With `COC(=O)c1cc2c3ccccc3n(S(=O)(=O)c3ccccc3)c2s1`, the melting point is 195 to 197 °C.

For the compound `CCCOC(Cc1ccc(OCCc2nc(C(C)(C)C)oc2C)c2ccccc12)C(=O)O` (configuration not stated), the melting point was in the range of 135 to 137 °C.

Compound `COc1cc(Cl)nc(NC(=O)NS(=O)(=O)C(C)S(=O)(=O)N2CCCC2)n1` (configuration not stated) came in with a melting point of 158 to 160 °C.

As for `O=Cc1ccc(-c2ccc(-c3ccccc3)s2)s1`, the melting point is 119 to 121 °C.

In turn, `O=C1c2cccc(Cl)c2C(=O)N1CCN1CCC(c2noc3cc(F)ccc23)CC1` returned a melting point of 170 to 171 °C.

The compound `O=C(c1ccc([N+](=O)[O-])cc1)N1CCCc2ccccc21` returned a melting point of 86 to 88 °C.

Take `COc1ccc(NC(C)(C)C(=O)O)c([N+](=O)[O-])c1`: the melting point fell in the range of 119 to 121 °C.

In the case of `Cc1nc2ccccc2cc1NC(=S)N1CCN(c2cc(F)cc(F)c2)CC1`, the melting point was in the range of 211 to 213 °C.

The compound `N#Cc1cc(C(=O)NNC(=O)c2occc2-c2ccc(OCc3ccccc3)cc2)ccc1O` yielded a melting point of 208 to 209 °C.

Take `COc1cccc(CN2CCC(n3c(C)c(-c4ccccc4)[nH]c3=O)CC2)c1`: the melting point was in the range of 227 to 228 °C.

Compound `Cc1nc(N2CCN(CC3CC3)C2=O)sc1C(=O)NCc1ccccc1` came in with a melting point of 142 to 143 °C.

`CC(C)Nc1cccnc1N1CCN(C(=O)c2ccc(C(=O)N3CCN(CC(O)CO)CC3)cc2)CC1` (configuration not stated): the melting point amounted to 158 °C.

In turn, `Cc1ccc(-c2noc(C(F)F)c2-c2ccc(S(N)(=O)=O)cc2)cc1` registered a melting point of 169 to 172 °C.

As for `COC(=O)c1snc(-c2ccc(Cl)c(Cl)c2)c1C(=O)OC`, the melting point was 105 to 107 °C.

Regarding `CC(C)CCn1cc(C(=O)c2ccccc2)c(=O)c2cn(C)nc21`, the melting point was in the range of 231 to 233 °C.

As for `O=C(O)c1cccc2cc3ccc(Cl)cc3c(C(=O)O)c12`, the melting point was 325 to 327 °C.

For the compound `CC(C)(C)C(=O)NC(=O)N1CC1C#N` (configuration not stated), the melting point is 136 to 138 °C.

Consider `COc1cc(C(=O)c2ccc(C(F)(F)F)cc2)cc(N)c1OC`, for which the melting point lay within 95 to 96 °C.

`Cc1c(O)c2c(c(C)c1NC(=O)CC(C)(C)C)[C@@H](c1ccc(C(C)C)cc1)CO2`: the melting point fell in the range of 181 to 182 °C.

Regarding `Cc1ccc(-c2cncn2-c2ccc(S(C)(=O)=O)cc2)cc1`, the melting point was 156 °C.

On to `Cc1nnc(-c2ccc3occ(-c4ccc(S(C)(=O)=O)c(F)c4)c3c2)o1`, for which the melting point was 199 to 200 °C.

`COc1ccc(F)cc1C(C)(C)CC(O)(Cc1cccc(C(N)=O)c1)C(F)(F)F` (configuration not stated): the melting point lay in the range of 70 to 75 °C.

`CC(C)(C)OC(=O)N1CCCN(c2ccc(F)cc2)CC1` gave a melting point of 88 to 89 °C.

For `COC(=O)c1ccc2cc(-c3ccc(OC)cc3)oc2c1`, the melting point lay within 163 to 164 °C.

The compound `CCOC(=O)Nc1cccc(C(=O)CBr)c1` had a melting point of 108 to 110 °C.

In turn, `CC(=O)c1ccc(F)c(S(N)(=O)=O)c1` yielded a melting point of 135 °C.

The compound `COc1cc(C(=O)Nc2ccccc2C(c2ccc(O)cc2)c2ccc(O)cc2)ccc1[N+](=O)[O-]` came in with a melting point of 129 to 131 °C.

On to `CC(=O)N1C(C(=O)NCCO[N+](=O)[O-])CSC1c1ccccc1C(=O)O` (configuration not stated), for which the melting point was in the range of 148 to 150 °C.

Compound `COc1cc2c(cc1OC)N(C)C(=O)CN=C2c1cccc(C)c1` gave a melting point of 119 to 121 °C.

Regarding `Cc1ccccc1-c1c(-c2ccc(S(C)(=O)=O)cc2)oc2ccccc2c1=O`, the melting point was 190 to 191 °C.

`CCOC(=O)C1=C(COCCN=[N+]=[N-])NC(C)=C(C(=O)OC)C1c1cccc(C(F)(F)F)c1Cl` (configuration not stated): the melting point is 143 to 145 °C.

`CCOC(=O)C1CCCCC1(c1ccc(O)c(C(C)(C)C)c1)c1ccc(O)c(C(C)(C)C)c1` (configuration not stated) came in with a melting point of 86 °C.

For `O=C(O)CCNC(=O)C(=Cc1cccc2ccccc12)CS`, the melting point came to 133 °C.

In turn, `O=C(C=Cc1ccc(O)c(O)c1O)OCCc1ccccc1` displayed a melting point of 144 °C.

Consider `COc1ccc(CNc2n[nH]cc2C(N)=O)cc1OC1CCCC1`, for which the melting point is 128 to 130 °C.

In the case of `Cc1nc(-c2ccc(Cl)cc2)[nH]c1C(=O)N[C@H](C)[C@](O)(Cn1cncn1)c1ccc(F)cc1F`, the melting point was in the range of 165 to 166 °C.

`CN1CCC(c2c[nH]c3ccc(C(=O)c4ccc(OC(F)(F)F)cc4)cc23)CC1` registered a melting point of 172 to 175 °C.

`CSC(=S)N1Cc2[nH]c3ccccc3c2CC1CCO` (configuration not stated): the melting point was 166 to 167 °C.

Turning to `CCCN1C(=O)C2CC(c3ccc([N+](=O)[O-])cc3)(C2)C1=O`, the melting point lay in the range of 149 to 151 °C.

As for `COC(=O)c1nc2c(c(-c3ccccc3)nn2-c2ccccc2)c(N)c1C(=S)OC`, the melting point fell in the range of 160 to 161 °C.

As to `CNc1ncnc(N)c1N`, the melting point was 180 to 185 °C.

In turn, `CC1(C)OCC(COC(=O)Cc2cccc3c(=O)cc(C4=CCCCC4)oc23)O1` (configuration not stated) came in with a melting point of 104 to 105 °C.

For `C[C@@H](Oc1ccc(-c2ccccc2)cc1)[C@H](O)CCc1cccnc1`, the melting point was in the range of 98 to 99.5 °C.

Take `O=C(NCc1c[nH]c(=S)n1[C@H]1CCc2c(F)cc(F)cc2C1)c1ccccc1`: the melting point lay in the range of 260 to 261 °C.

`COC(=O)COc1ccc(SCc2cc(-c3ccc(Cl)cc3)on2)c2c1CCC2` gave a melting point of 112 to 114 °C.

`O=C(Nc1noc2ccccc12)N1CCN(C(=O)OCc2ccccc2)CC1` came in with a melting point of 137 to 138 °C.

On to `CN1CCNC(c2ccccc2)c2cc([N+](=O)[O-])ccc21` (configuration not stated), for which the melting point is 96 to 99 °C.

Regarding `COc1ccc(C(=O)Nc2cc(NC(=O)c3ccc(OCCCCl)cc3)ccc2C)cc1OC`, the melting point was in the range of 186 to 187 °C.

Consider `CCOC(=O)C(=O)Nc1coc2ccc(Cl)cc2c1=O`, for which the melting point was in the range of 161 to 162 °C.

In the case of `COC(=O)c1ccc(C(=O)Nc2ccc3c(c2)C(C)(C)CCC3(C)C)cc1`, the melting point turned out to be 211 °C.

`CCC(N)C1CCN(c2c(F)cc3c(=O)c(C(=O)O)cn(C4CC4)c3c2F)C1` (configuration not stated) came in with a melting point of 177 to 179 °C.

In turn, `COc1cccc(OC(=O)NC2C(=O)N(CCC(C)C)c3cc(Cl)c(Cl)cc3N(c3ccccc3)C2=O)c1` (configuration not stated) came in with a melting point of 139 to 140 °C.

Take `Nc1cc(C(O)=S)cc(SCc2ccccc2)c1-c1ccccc1`: the melting point was 170 to 172 °C.

Compound `Cc1cccc(C)c1Oc1cc2c(cc1Cl)C=C(C(=O)O)C(C(F)(F)F)O2` (configuration not stated) displayed a melting point of 253 to 259 °C.

The compound `CS(=O)(=O)c1ccc(-c2[nH]c(CO)nc2-c2ccc(F)cc2)cc1` came in with a melting point of 115 to 117 °C.

Take `O=C(O)CCC(=O)N1CCc2cc(S(=O)(=O)N3CCN(c4ccc(C(=O)O)cc4)CC3)ccc21`: the melting point was in the range of 255 to 257 °C.

As for `CC(=O)CS(=O)(=O)CCc1ccc2c(c1)OCO2`, the melting point was 97 to 99 °C.

In turn, `CCC(=O)NCC[C@@H]1CCc2cc(Br)c3c(c21)CCO3` registered a melting point of 129 to 131 °C.

The compound `N#CN1CCC2(CC1)CN(c1ccccc1[N+](=O)[O-])c1ccccc12` had a melting point of 148 to 150 °C.

In turn, `CC(CO)NC(=O)C(F)(F)F` (configuration not stated) registered a melting point of 80 to 81 °C.

`COc1cc(Nc2c(C#N)cnc3cc(-c4ccc(CN5CCOCC5)cc4)c(OC)cc23)c(Cl)cc1Cl` came in with a melting point of 108 to 110 °C.

For the compound `CCCC1=C(C#N)C(c2ccccc2C)c2c[nH]nc2N1` (configuration not stated), the melting point came out at 230 °C.

Take `Cc1nncn1-c1ccc(Cl)cc1C(=O)c1ccccc1Cl`: the melting point worked out at 148 °C.

`CC(C)(C)[Si](C)(C)Oc1ccccc1-c1cc(-c2cccc([N+](=O)[O-])c2)c(C#N)c(NC(=O)c2ccsc2)n1`: the melting point was in the range of 139 to 142 °C.

For `c1cc(CCCn2ccnc2)cc(OCc2coc(-c3cccs3)n2)c1`, the melting point lay within 112 to 113 °C.

Regarding `COc1cc(OC(C)=O)c2ccccc2c1OC(C)=O`, the melting point is 135 to 136 °C.

`Cc1cc(N)ncc1I` yielded a melting point of 198 to 200 °C.

In the case of `Fc1cccc(-c2cncnc2)c1`, the melting point was in the range of 63 to 63.5 °C.

Turning to `COc1ccc(CCc2ccc3ccc(C(=O)NCC(O)c4ccccc4)c(O)c3n2)cc1` (configuration not stated), the melting point fell in the range of 69 to 72 °C.

Turning to `COC(=O)c1c(S(=O)(=O)NC(=O)Nc2nc(OC)cc(OC)n2)ccn1C`, the melting point was in the range of 182 to 186 °C.

In the case of `Cc1cccc(COc2cccc(OCc3cc(=O)c4ccccc4n3C)c2)c1OCC(=O)O`, the melting point was in the range of 192 to 194 °C.

Regarding `COc1cc(Oc2ccc(S(C)(=O)=O)nc2)cc2cc(C3=NCC(CC(=O)N4CCOCC4)S3)[nH]c12` (configuration not stated), the melting point was in the range of 148 to 149 °C.
